Experimental data from patent US8188303B2, “Anti-malarial compound isolated from Gomphostema niveum” (The Director General, Defence Research and Development …, priority 2005, dated 2012).
Converted amounts (≈) assume the structure as drawn.

What was measured:
[1] = tested on: P. falciparum; experiment: In-vitro evaluation of anti-malarial activity (schizont maturation inhibition); format: cell-based, Plasmodium falciparum
Experimental: Two strains of chloroquine sensitive strain and one strain of P. falciparum isolated from patients from Jagadalpur region of India and maintained in vitro. The cultures are maintained as per the standard culture procedures.
The parasites are growth in O +ve human RBCs with the addition of RPMI 1640 culture media with 10% Human serum as supplement. The cells are incubated at 37° C. at 5% CO2 atmosphere and the parasitemia is checked after 24 hrs and media changed. When parasitemia exceeded 10% parasitized cells the culture is subcultured with the addition of fresh RBC. The parasite growth is synchronized by the sorbitol lysis method and synchronized ring stage parasites are used for testing. The in-vitro testing is done in 100 μI complete media per well with the addition of 10 μI of erythrocytes with 2% of ring stages of parasites. All the tests are run in duplicates with in 96 well flat bottomed tissue culture plate and double dilutions are made for each of the test compound with individual control wells only with the RPMI 1640 and human serum supplement. The growth of the parasites in the presence of each of the test compound, chloroquine and control wells are monitored by the examination of the giemsa stained blood smears made after 24 hrs of incubation. The counting is done for the presence of mature schizsonts among 200 asexual parasites and the average schizont maturation inhibition is calculated by the formula (1−Nt/Nc)×100 where in Nt and Nc represent the number of schizont present in the test and control respectively. The IC 50 and IC 90 values are calculated by using the commercial statistical package Sigmastat.
As controls IC50 chloroquine and artether were also determined.

[2] = tested on: P. berghi; experiment: In-vivo anti-malarial activity; design: species or system Plasmodium berghi; conditions: result in words
[3] = schizont maturation inhibition, synchronized ring stage parasites in human RBCs, 24 hrs incubation

SMILES	IC50 ([1]; Plasmodium falciparum, 24 h) [µg/mL]	IC90 ([1]; Plasmodium falciparum, 24 h) [µg/mL]	inhibitory activity against P. falciparum in-vitro ([1]; in-vitro, result in words)	IC50 [1, 3] [µg/mL]	IC90 [1, 3] [µg/mL]	inhibitory activity against P. berghi in-vivo [2]
CCN(CC)CCCC(C)Nc1ccnc2cc(Cl)ccc12 (stereo not drawn) [Chloroquine, reference compound]	12.9 (≈ 40.2 µM)	23.7 (≈ 74.1 µM)	–	–	–	–
CC1=CC(=O)CC2C1(C)CCC(CO)C2(C)CCC1=CCOC1=O (stereo not drawn) [Gomphostenin, 3-[2-(2-Hydroxymethyl-1,4a,5-trimethyl-7-oxo-1,2,3,4,4a,7 8,8a-octahydronaphthalen-1-yl)-ethyl]-5H-furan-2-one]	–	–	significant inhibitory activity	8.23 (≈ 24.8 µM)	24.29 (≈ 73.1 µM)	significant inhibitory activity
